Data taken from patent publication US20070134261A1, “Effectors of innate immunity” (priority 2001, published 2007).
In brackets after ≈: the same amount, converted by molar mass. Like-named read-outs stand apart in the source and are kept apart here. Residues, ends and D or L forms follow the SMILES beside them. No end group written: not given here.

Legend:
[1] = system: HBE cells; assay: WST-1 assay (cell viability); format: cell-based, human
Method: (§1) The potential toxicity of the peptides was measured in two ways. First, the Cytotoxicity Detection Kit (Roche) (Lactate dehydrogenase-LDH) Assay was used. It is a colorimetric assay for the quantification of cell death and cell lysis, based on the measurement of LDH activity released from the cytosol of damaged cells into the supernatant. LDH is a stable cytoplasmic enzyme present in all cells and it is released into the cell culture supernatant upon damage of the plasma membrane. An increase in the amount of dead or plasma membrane-damaged cells results in an increase of the LDH enzyme activity in the culture supernatant as measured with an ELISA plate reader, OD490 nm (the amount of color formed in the assay is proportional to the number of lysed cells). In this assay, human bronchial epithelial cells (I6HBEo14, HBE) cells were incubated with 100 μg of peptide for 24 hours, the supernatant removed and tested for LDH. The other assay used to measure toxicity of the cationic peptides was the WST-1 assay (Roche). This assay is a colorimetric assay for the quantification of cell proliferation and cell viability, based on the cleavage of the tetrazolium salt WST-1 by mitochondrial dehydrogenases in viable cells (a non-radioactive alternative to the [^3H]-thymidine incorporation assay). In this assay, HBE cells were incubated with 100 μg of peptide for 24 hours, and then 10 μl/well Cell Proliferation Reagent WST-1 was added. The cells are incubated with the reagent and the plate is then measured with an ELISA plate reader, OD490 nm.

[2] = system: human bronchial epithelial cells (HBE); assay: LDH release assay (Cytotoxicity Detection Kit); format: cell-based; details: 24 hours; for LDH Release (OD490 nm): 100 μg/ml, no peptide control 1.0 ± 0.05; for toxicity / membrane damage: as measured by both assays (LDH, WST-1), HBE cells
Method: as §1

[3] = format: cell-based
[4] = system: A549 epithelial cells; assay: Human Operon arrays (PRHU04-S1) of A549 cells treated with peptide alone (Tables 31-37, 53); details: peptide 50 μg/ml, 4 h, A549 cells; for X58467 cytochrome P450, expression Ratio ID#:ctrl: Table 36
[5] = Citobacter rhodensis, overnight, 96-well plate
[6] = Enterohaemorrhagic E. coli, overnight, 96-well plate
[7] = Escherichia coli, overnight, 96-well plate
[8] = Pseudomonas aeruginosa, overnight, 96-well plate
[9] = Salmonella enteritidis ssp. typhimurium, overnight, 96-well plate
[10] = Staphylococcus aureus, overnight, 96-well plate

RAAFKWAWAWWRRK [SEQ ID NO: 23]
OD490 nm (WST-1 cell viability) [1]: 1.14 ± 0.24 OD490 nm | LDH Release (OD490 nm) [2]: 1.26 ± 0.46 OD490 nm | MIC, C. rhod. ([3]; 24 h): 4 mg/L | MIC, E. coli ([3]; 24 h): 4 mg/L | MIC, EHEC ([3]; 24 h): 4 mg/L | MIC, P. aerug. ([3]; 24 h): 8 mg/L | MIC, S. aureus ([3]; 24 h): 8 mg/L | MIC, S. typhim. ([3]; 24 h): 16 mg/L

RRARIVPAIPVARR [SEQ ID NO: 9]
OD490 nm (WST-1 cell viability) [1]: 1.69 ± 0.29 OD490 nm | LDH Release (OD490 nm) [2]: 1.6 ± 0.03 OD490 nm

RAPYWPWAWARPRK [ID 21]
ID#:ctrl intensity ratio, X65962 cytochrome P-450 [4]: 5.7

KMKSFAKMLMLALKKVLKVLTTALTLKAGLPS [SEQ ID NO: 43]
OD490 nm (WST-1 cell viability) [1]: 0.46 ± 0.10 OD490 nm | LDH Release (OD490 nm) [2]: 4.3 ± 0.2 OD490 nm | toxicity / membrane damage [2]: did induce membrane damage | MIC, C. rhod. ([3]; 24 h): 8 mg/L | MIC, E. coli ([3]; 24 h): 8 mg/L | MIC, EHEC ([3]; 24 h): 4 mg/L | MIC, P. aerug. ([3]; 24 h): 16 mg/L | MIC, S. aureus ([3]; 24 h): 128 mg/L | MIC, S. typhim. ([3]; 24 h): 16 mg/L

KRTAIKKVSRRGMSVKARR [SEQ ID NO: 37]
OD490 nm (WST-1 cell viability) [1]: 1.67 ± 0.02 OD490 nm | LDH Release (OD490 nm) [2]: 0.96 ± 0.04 OD490 nm

RLARIVVIRVAR-NH2 [SEQ ID NO: 3, reference compound]
OD490 nm (WST-1 cell viability) [1]: 1.35 ± 0.12 OD490 nm | LDH Release (OD490 nm) [2]: 1.05 ± 0.04 OD490 nm

KWKSFLRTFKSPVRTVFHTALKPISS [SEQ ID NO: 53]
OD490 nm (WST-1 cell viability) [1]: 1.51 ± 0.37 OD490 nm | LDH Release (OD490 nm) [2]: 103 ± 0.06 OD490 nm | MIC, C. rhod. [3, 5]: 16 mg/L | MIC, EHEC [3, 6]: 8 mg/L | MIC, E. coli [3, 7]: 4 mg/L | MIC, P. aerug. [3, 8]: 8 mg/L | MIC, S. typhim. [3, 9]: 8 mg/L

RRAWWKAWWARRK [SEQ ID NO: 20]
OD490 nm (WST-1 cell viability) [1]: 1.61 ± 0.21 OD490 nm | LDH Release (OD490 nm) [2]: 1.05 ± 0.03 OD490 nm | MIC, C. rhod. ([3]; 24 h): 16 mg/L | MIC, E. coli ([3]; 24 h): 8 mg/L | MIC, EHEC ([3]; 24 h): 8 mg/L | MIC, P. aerug. ([3]; 24 h): 8 mg/L | MIC, S. aureus ([3]; 24 h): 8 mg/L | MIC, S. typhim. ([3]; 24 h): 8 mg/L

KSRIVPAIPVSLL [SEQ ID NO: 7]
OD490 nm (WST-1 cell viability) [1]: 1.78 ± 0.10 OD490 nm | LDH Release (OD490 nm) [2]: 1.01 ± 0.04 OD490 nm

TTLGPVKRDSIPGE [ID 14]
ID#:ctrl intensity ratio, M14565 cytochrome P450 [4]: 5.0

RRDCRRVMVRGIDIKAK [SEQ ID NO: 36]
OD490 nm (WST-1 cell viability) [1]: 1.58 ± 0.05 OD490 nm | LDH Release (OD490 nm) [2]: 0.85 ± 0.04 OD490 nm | MIC, C. rhod. ([3]; 24 h): 32 mg/L | MIC, E. coli ([3]; 24 h): 32 mg/L | MIC, EHEC ([3]; 24 h): 16 mg/L | MIC, S. typhim. ([3]; 24 h): 32 mg/L

Polymyxin
MIC, C. rhod. [3, 5]: 0.25 mg/L | MIC, EHEC [3, 6]: 0.5 mg/L | MIC, E. coli [3, 7]: 0.25 mg/L | MIC, P. aerug. [3, 8]: 0.25 mg/L | MIC, S. typhim. [3, 9]: 0.5 mg/L | MIC, S. aureus [3, 10]: 16 mg/L

KQKLFAKMLMSALKKKTLVTTPLAGK [SEQ ID NO: 45]
OD490 nm (WST-1 cell viability) [1]: 1.54 ± 0.35 OD490 nm | LDH Release (OD490 nm) [2]: 0.98 ± 0.04 OD490 nm | MIC, C. rhod. ([3]; 24 h): 16 mg/L | MIC, E. coli ([3]; 24 h): 8 mg/L | MIC, EHEC ([3]; 24 h): 16 mg/L | MIC, P. aerug. ([3]; 24 h): 128 mg/L | MIC, S. typhim. ([3]; 24 h): 128 mg/L

CC[C@H](C)[C@H](NC(=O)[C@H](CC(C)C)NC(=O)[C@H](C)NC(=O)[C@@H]1CCCN1C(=O)[C@H](CC(C)C)NC(=O)CNC(=O)[C@@H](NC(=O)[C@@H](NC(=O)[C@H](CC(C)C)NC(=O)[C@@H](NC(=O)[C@H](CCCCN)NC(=O)[C@H](CCCCN)NC(=O)[C@H](CC(C)C)NC(=O)[C@H](C)NC(=O)[C@H](CCCCN)NC(=O)[C@H](CCSC)NC(=O)[C@H](CC(C)C)NC(=O)[C@H](CCSC)NC(=O)[C@H](CCCCN)NC(=O)[C@H](CC(C)C)NC(=O)[C@H](Cc1ccccc1)NC(=O)[C@H](CO)NC(=O)[C@H](CCCCN)NC(=O)[C@H](CO)NC(=O)[C@@H](N)CCCCN)C(C)C)[C@@H](C)O)[C@@H](C)O)C(=O)N[C@@H](CO)C(=O)O [SEQ ID NO: 41]
OD490 nm (WST-1 cell viability) [1]: 0.40 ± 0.01 OD490 nm | LDH Release (OD490 nm) [2]: 3.3 ± 0.2 OD490 nm | toxicity / membrane damage [2]: did induce membrane damage | MIC, C. rhod. [3, 5]: 2 mg/L (≈ 0.702 µM) | MIC, EHEC [3, 6]: 2 mg/L (≈ 0.702 µM) | MIC, E. coli [3, 7]: 4 mg/L (≈ 1.4 µM) | MIC, P. aerug. [3, 8]: 8 mg/L (≈ 2.81 µM) | MIC, S. typhim. [3, 9]: 8 mg/L (≈ 2.81 µM) | MIC, S. aureus [3, 10]: 64 mg/L (≈ 22.5 µM)

SELPGLKHPCVPGS [SEQ ID NO: 13]
OD490 nm (WST-1 cell viability) [1]: 1.23 ± 0.11 OD490 nm | LDH Release (OD490 nm) [2]: 0.93 ± 0.06 OD490 nm

RKMVKVDVRGIMIRKDRR [SEQ ID NO: 29]
OD490 nm (WST-1 cell viability) [1]: 1.75 ± 0.09 OD490 nm | LDH Release (OD490 nm) [2]: 0.99 ± 0.02 OD490 nm | MIC, C. rhod. ([3]; 24 h): 32 mg/L | MIC, E. coli ([3]; 24 h): 2 mg/L | MIC, EHEC ([3]; 24 h): 4 mg/L | MIC, S. typhim. ([3]; 24 h): 16 mg/L

Gentamicin
MIC, C. rhod. [3, 5]: 0.25 mg/L | MIC, EHEC [3, 6]: 0.5 mg/L | MIC, E. coli [3, 7]: 0.25 mg/L | MIC, P. aerug. [3, 8]: 0.25 mg/L | MIC, S. typhim. [3, 9]: 0.25 mg/L | MIC, S. aureus [3, 10]: 0.25 mg/L

CC[C@H](C)[C@H](NC(=O)CNC(=O)[C@H](CCCNC(=N)N)NC(=O)[C@H](CCSC)NC(=O)[C@H](CO)NC(=O)[C@@H](NC(=O)[C@H](CCCNC(=N)N)NC(=O)[C@H](CCCNC(=N)N)NC(=O)[C@@H](NC(=O)[C@H](CS)NC(=O)[C@H](Cc1c[nH]cn1)NC(=O)[C@@H](N)CCCNC(=N)N)[C@@H](C)CC)C(C)C)C(=O)N[C@H](C(=O)N[C@@H](CCSC)C(=O)N[C@@H](CCCNC(=N)N)C(=O)N[C@@H](CCCNC(=N)N)C(=O)N[C@@H](CS)C(=O)N[C@@H](CCCCN)C(=O)O)[C@@H](C)CC [SEQ ID NO: 38] (H-RHCIRRVSMRGIIMRRCK-OH)
OD490 nm (WST-1 cell viability) [1]: 1.83 ± 0.03 OD490 nm | LDH Release (OD490 nm) [2]: 0.95 ± 0.02 OD490 nm | MIC, C. rhod. ([3]; 24 h): 8 mg/L (≈ 3.52 µM) | MIC, E. coli ([3]; 24 h): 0.5 mg/L (≈ 0.22 µM) | MIC, EHEC ([3]; 24 h): 4 mg/L (≈ 1.76 µM) | MIC, P. aerug. ([3]; 24 h): 64 mg/L (≈ 28.2 µM) | MIC, S. aureus ([3]; 24 h): 32 mg/L (≈ 14.1 µM) | MIC, S. typhim. ([3]; 24 h): 4 mg/L (≈ 1.76 µM)

RAAFKWAWAWWRRK [ID 23]
ID#:ctrl intensity ratio, X65962 cytochrome P-450 [4]: 19.8

SLPIKHDRLPATS [ID 15]
ID#:ctrl intensity ratio, M14565 cytochrome P450 [4]: 3.6

RRRWKWAWPRRK [ID 24]
ID#:ctrl intensity ratio, X65962 cytochrome P-450 [4]: 12.0

RRAWWKAWWARRK [ID 20]
ID#:ctrl intensity ratio, X65962 cytochrome P-450 [4]: 25.3

NLPDLKKPRVPATS [ID 17]
ID#:ctrl intensity ratio, M14565 cytochrome P450 [4]: 6.3

KNKAFAKMLMKALKKVTTAAKPLTG [ID 44]
X58467 cytochrome P450, expression Ratio ID#:ctrl [4]: 34.4

Triton X-100 [reference compound]
OD490 nm (WST-1 cell viability) [1]: 0.26 ± 0.01 OD490 nm | LDH Release (OD490 nm) [2]: 4.6 ± 0.1 OD490 nm

KQKLFAKMLMSALKKKTLVTTPLAGK [ID 45]
X58467 cytochrome P450, expression Ratio ID#:ctrl [4]: 3.4

KCKLFKKMLMLALKKVLTTGLPALKLTK [ID 40]
X58467 cytochrome P450, expression Ratio ID#:ctrl [4]: 15.4

NLPDLKKPRVPATS [SEQ ID NO: 17]
OD490 nm (WST-1 cell viability) [1]: 1.60 ± 0.46 OD490 nm | LDH Release (OD490 nm) [2]: 0.94 ± 0.04 OD490 nm

TTLGPVKRDSIPGE [SEQ ID NO: 14]
OD490 nm (WST-1 cell viability) [1]: 1.25 ± 0.02 OD490 nm | LDH Release (OD490 nm) [2]: 0.99 ± 0.05 OD490 nm

KMKSFAKMLMLALKKVLKVLTTALTLKAGLPS [ID 43]
X58467 cytochrome P450, expression Ratio ID#:ctrl [4]: 7.9

DLPAKRGSAPGST [ID 12]
ID#:ctrl intensity ratio, M14565 cytochrome P450 [4]: 10.6

KTKKFAKMLMMALKKVVSTAKPLAILS [ID 42]
X58467 cytochrome P450, expression Ratio ID#:ctrl [4]: 4.7
